Assay results as given in PubChem BioAssay (NCI).
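Interpolation was linear, between the two tested concentrations surrounding the appropriate level; five concentrations were tested over 48 hours in 96-well plates. Abbreviation: GI50, concentration required for 50% inhibition of growth. TGI: concentration producing complete growth inhibition.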

Experiments:
Experiment in all cases: growth of human tumour cells (NCI), 48 h
A498 renal = test system: A498 renal
HT29 colon = test system: HT29 colon
MDA-MB-435 = test system: MDA-MB-435
OVCAR-4 ovarian = test system: OVCAR-4 ovarian
PC-3 prostate = test system: PC-3 prostate
SK-MEL-2 melanoma = test system: SK-MEL-2 melanoma
SK-MEL-5 melanoma = test system: SK-MEL-5 melanoma
SN12C renal = test system: SN12C renal
SNB-19 CNS = test system: SNB-19 CNS
SNB-75 CNS = test system: SNB-75 CNS

| SMILES | GI50 (A498 renal) [µM] | TGI (A498 renal) [µM] | GI50 (HT29 colon) [µM] | TGI (HT29 colon) [µM] | GI50 (MDA-MB-435) [µM] | TGI (MDA-MB-435) [µM] | GI50 (OVCAR-4 ovarian) [µM] | TGI (OVCAR-4 ovarian) [µM] | GI50 (PC-3 prostate) [µM] | TGI (PC-3 prostate) [µM] | GI50 (SK-MEL-2 melanoma) [µM] | TGI (SK-MEL-2 melanoma) [µM] | GI50 (SK-MEL-5 melanoma) [µM] | TGI (SK-MEL-5 melanoma) [µM] | GI50 (SN12C renal) [µM] | TGI (SN12C renal) [µM] | GI50 (SNB-19 CNS) [µM] | TGI (SNB-19 CNS) [µM] | GI50 (SNB-75 CNS) [µM] | TGI (SNB-75 CNS) [µM] |
| --- | --- | --- | --- | --- | --- | --- | --- | --- | --- | --- | --- | --- | --- | --- | --- | --- | --- | --- | --- | --- |
| N#C/C(=C/C=C/c1ccccc1)S(=O)c1ccccc1 (stereo not given) | 1.61 | 3.13 | 0.366 | 2.17 | 0.485 | 1.83 | 0.329 | 2.27 | 1.35 | 3.33 | 2.09 | 5.62 | 1.65 | 3.05 | 0.373 | 1.63 | 0.638 | 2.58 | 0.904 | 3.01 |
| COc1ccc(C(=O)C(Br)C(Br)C(=O)O)cc1 (stereo not given) |  | > 100 |  | 31 |  | > 100 |  | > 100 |  | > 100 |  | > 100 |  | > 100 |  | > 100 |  | > 100 |  | > 100 |
| CNC(=O)c1cncc(/C=C/c2c(C)cccc2C)c1 | 8.95 | > 25 | 16.2 | > 25 | > 25 | > 25 | > 25 | > 25 | > 25 | > 25 | > 25 | > 25 | > 25 | > 25 | 20.6 | > 25 | > 25 | > 25 | 4.83 | > 18.2 |
| COc1ccc(-c2nc(N)c3ncn(C4OC(CO)C(O)C4O)c3n2)cc1 (stereo not given) |  | > 100 |  | > 100 |  | > 100 |  | > 100 |  | > 100 |  | > 100 |  | > 100 |  | > 100 |  | > 100 |  | > 100 |
| N/C(=N\c1nc2ccccc2s1)NC(=O)Nc1ccccc1Cl | 0.0818 | 0.579 | 0.105 | 6.31 | 0.0269 | 0.0868 | 2.71 | 8.53 | 0.13 | > 71.9 | 3.24 | > 61.3 | 0.318 | 13.5 | 0.916 | > 50.1 | 0.201 | > 69.5 | 0.0336 | 0.214 |
| CC(=O)Nc1ccc2oc(=O)c3ccccc3c2c1 |  | > 100 |  | > 100 |  | > 100 |  | > 100 |  | > 100 |  | > 100 |  | > 100 |  | > 100 |  | > 100 |  | > 100 |
| O=C1/C(=C/c2ccccc2)CN(CCC(=O)N2C/C(=C\c3ccccc3)C(=O)/C(=C/c3ccccc3)C2)C/C1=C\c1ccccc1 | 1.5 | 17.8 | 0.635 | > 55.9 | 0.683 | 5.68 | 18.8 | 83.1 | 6.02 | > 69.9 | 17.5 | 38.1 | 14.1 | 47.2 | 17.3 | > 95.9 | 13.2 | > 93.4 | 10.7 | 35.3 |
| NCC1OC(n2cnc3c(=O)[nH]c(N)nc32)C(O)C1O (stereo not given) |  | > 100 |  | > 100 |  | > 100 |  | > 100 |  | > 100 |  | > 100 |  | > 100 |  | > 100 |  | > 100 |  | > 100 |
| CN(C)CCCN=c1cc2c(=O)n(CCCN(C)C)c(=O)c3c(NCCCN(C)C)cc4c(O)n(CCCN(C)C)c(=O)c1c4c3-2 | 1.15 | 3.92 | 0.573 | 3.58 | 3.41 | 14.9 | 1.83 | 7.9 | 2.79 | 34.1 | 1.37 | 5.08 | 3.03 | 11.2 | 1.73 | 30.9 | 1.51 | 19.7 | 1.25 | 3.68 |
| O=C1/C(=C/c2ccccc2Br)COc2ccc(O)c(O)c21 | 1.97 | 3.69 | 3.37 | 10.4 | 1.14 | 4.91 | 2.35 | 10.2 | 1.04 | 9.89 | 1.97 | 4.82 | 1.63 | 3.01 | 0.937 | 3.62 | 1.69 | 3.92 | 1.47 | 6.92 |
| CCC(c1ccc(OC)cc1)C(CC)c1ccc(O)c(CN2CCCC2)c1 (stereo not given) | 2.51 | 11.1 | 2.18 | 5.78 | 2.01 | 4.76 | 2.54 | 15.2 | 3.38 | 14.3 | 1.95 | 4.03 | 1.74 | 3.22 | 5.61 | 20.2 | 4.39 | 17.2 | 3.28 | 15.5 |
| CN(C1=NS(=O)(=O)N=C(N(C)c2ccccc2)O1)c1ccccc1 |  | 42.1 |  | 54.3 |  | 30.4 |  | 51.5 |  | > 100 |  | 38 |  | 25.5 |  | 41.2 |  | 43.4 |  | 34.5 |
| CC(C)(C)N1CC(OC(N)=O)C1 | > 100 | > 100 | > 100 | > 100 | > 100 | > 100 | > 100 | > 100 | > 100 | > 100 | > 100 | > 100 | > 100 | > 100 | > 100 | > 100 | > 100 | > 100 | > 100 | > 100 |
